Measured values from patent publication US20130338092A1, “COMPOUNDS AND METHODS FOR TARGETING LEUKEMIC STEM CELLS” (The Broad Institute, Inc., priority 2011, published 2013).
Entries after “also recorded” stand apart in the source; their conditions may differ.

Tests used:
[1] = tested on: LSC (dsRed+); experiment: Stromal pretreatment of primary MSC stroma, triple coculture, leukemia cells; type: cell-based, murine; details: stroma pretreated three days, LSCs and HSPCs comingled
Method: In the context of primary MSC stroma (uncolored), both HSPCs (from actin-GFP mice (000329, Jackson Lab)) and LSC (dsRed+) populations were comingled together in a ratio of 2:1 within the same 384format wells. As in the stromal pretreatment screen with OP9 stroma, BRD7116 was added for three days to the stroma prior to the addition of the hematopoietic populations. 5 days after compound addition, wells were imaged in the red and green channels and total cells were counted using MetaXpress software from MDC.
This experiment was also performed in the context of primary MSC stroma. Both HSPCs and LSC populations were comingled together in the same wells, as a “triple” coculture.

[2] = tested on: primary leukemia cells; experiment: Gene expression profiling with GSEA; type: cell-based, murine; details: 5 μM, 6 hours in suspension
Method: To elucidate potential cell-autonomous effects of BRD7116, primary leukemia cells were exposed to either 5 μM BRD7116 or DMSO vehicle for 6 hours in suspension in IMDM (12440053, Invitrogen) with 10% FBS, 10 ng/ml mIL3, and 1× Pen-Strep.
RNA was isolated using a trizol-chloroform protocol or with a Qiagen RNeasy kit (74104, Qiagen). Total RNA from the samples was normalized to 20 ng/μl and the Illumina® TotalPrep™-96 RNA Amplification Kit (Applied Biosystems, PN #4393543) protocol was used for amplification in a semi automated process. The total RNA underwent reverse transcription to synthesize first-strand cDNA. This cDNA was then converted into a double-stranded DNA template for transcription. In vitro transcription synthesized aRNA and incorporated a biotin-conjugated nucleotide. […] Illumina's BeadArray Reader was used to measure the fluorescence intensity at each addressed bead location.
Gene-expression profiles were generated by using mouse ref-8 DNA microarray (Illumina) according to manufacturer's instruction. […] The resulting data was analyzed using Gene Set Enrichment Analysis method (Subramanian, A., Tamayo, P., Mootha, V. K., Mukherjee, S., Ebert, B. L., Gillette, M. A., Paulovich, A., Pomeroy, S. L., Golub, T. R., Lander, E. S., et al. (2005). Proc Natl Acad Sci USA 102, 15545-15550.). […]

[3] = tested on: OP9 stromal monolayers; experiment: Stromal viability in pulse treatment experiment (CellTiter-Glo); type: cell-based, murine; details: compared to DMSO control
Method: OP9 or MSCs were plated in white, 384 well plates (3570, Corning) and 24 hours later compounds were added in 8-point dose as described. Three days later the plates were put out to cool to room temperature, the cultures were aspirated, and 50 μl of CellTiterGlo reagent (G7570, Promega) diluted 1:3 in PBS was added to each well. The plates were covered and placed on an orbital shaker for 20 minutes then analyzed using either an LJL Analyst (LJL) or Envision (Perkin Elmer).
13,500 GFP+ OP9 cells were plated onto gelatin coated, 96 well black, clear bottom plates (3904, Corning). 24 hours later, 2,000 sorted leukemia cells were plated onto the monolayer. Compounds (5 μM) were added either 1 (early pulse) or 4 (late pulse) days later at the same 5 μM working concentration of main coculture screen. In both cases, compounds were removed after 24 hours of treatment, the wells were washed, and fresh media without compound was added. The plates were imaged and analyzed 6 days after leukemia cell plating. The viability of the stroma was assessed using stromal monolayers grown alone and treated in parallel, with the same readout described in the stromal toxicity screen above.

[4] = tested on: CD45.1+ HSPCs; parameters: species or system mice; details: mouse, in vivo
Method: Heterotypic cocultures containing dsRed+ LSCs, CD45.1+ HSPCs, and GFP+ MSCs were exposed to compounds for 48 hours, then transplanted en masse post trypsinization with untreated wild-type helper splenocytes (CD45.1+CD45.2+) into lethally irradiated, wildtype recipient animals (CD45.2+). Latency of leukemia onset was compared for mice receiving cocultures treated with compound compared to DMSO control treated cocultures. The engraftment of the normal HSPCs treated and injected along with the leukemia cells was quantified by FACs analysis of the bone marrow of mice alive at the 16 week endpoint across treatments.
As in vivo readouts may better reflect hematopoietic stem cell function compared to in vitro readouts (Purton, L. E., and Scadden, D. T. (2007). Cell Stem Cell 1, 263-270.; Bock, T. A. (1997). Stem Cells 15 Suppl 1, 185-195.), our results were confirmed using murine transplantation studies. […] Compounds that increase disease latency relative to DMSO control are considered active. […] Bone marrow repopulating ability is a functional measure of normal HSPCs, assessed by quantifying long-term engraftment and differentiation patterns in recipient mice (Bock, T. A. (1997). Stem Cells 15 Suppl 1, 185-195.; Nguyen, L. V., Vanner, R., Dirks, P., and Eaves, C. J. (2012). Nat Rev Cancer 12, 133-143.). […]

Structure (SMILES)	leukemia cells on pretreated MSC stroma [1]	gene expression changes (GSEA) [2]	stromal viability after 24 hour pulse (CellTiter-Glo) [3]	differentiation patterns of engrafted HSPCs [4]
CC1(C)C(C(=O)Nc2ccc(S(=O)(=O)c3ccc(NC(=O)C4C(C)(C)C4(C)C)cc3)cc2)C1(C)C [BRD7116]	selective inhibition of the leukemia cells; also recorded: an inhibition of the leukemia cells was observed	induces an AML differentiation program; also recorded: induction of an AML differentiation program		
CCC(C)C(=O)OC1CC(C)C=C2C=CC(C)C(CCC(O)CC(O)CC(=O)O)C21 (stereo not shown) [Lovastatic acid]			no effect on stromal viability	normal differentiation patterns
